Biological target: P. falciparum apicoplast DNA polymerase (Pf-apPOL) (Plasmodium falciparum, UniProt Q8ILY1)
Assay: Fluorescence-based high-throughput DNA polymerase assay (molecular beacon), primary screen and dose-response;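 as to % inhibition ApPOL 90': test concentration in µM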;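 as to % inhibition Apol 40': compound concentration given in µM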;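 as to % inhibition apPOL 180': test concentration in µM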
Type: biochemical
Settings: for DNA Pol: 90 min, 10 µM
How it was run: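 Single-point screening used 10 µM compound with 20 nM polymerase, 20 nM hairpin substrate and 6 µM dNTPs for 90 min at 25 °C. Confirmatory titrations (2.5–80 µM) followed fluorescence at three times, and IC50 was derived from a fit including a cooperativity term n.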

Sequence of P. falciparum apicoplast DNA polymerase (Pf-apPOL) (Q8ILY1 entry or part of it): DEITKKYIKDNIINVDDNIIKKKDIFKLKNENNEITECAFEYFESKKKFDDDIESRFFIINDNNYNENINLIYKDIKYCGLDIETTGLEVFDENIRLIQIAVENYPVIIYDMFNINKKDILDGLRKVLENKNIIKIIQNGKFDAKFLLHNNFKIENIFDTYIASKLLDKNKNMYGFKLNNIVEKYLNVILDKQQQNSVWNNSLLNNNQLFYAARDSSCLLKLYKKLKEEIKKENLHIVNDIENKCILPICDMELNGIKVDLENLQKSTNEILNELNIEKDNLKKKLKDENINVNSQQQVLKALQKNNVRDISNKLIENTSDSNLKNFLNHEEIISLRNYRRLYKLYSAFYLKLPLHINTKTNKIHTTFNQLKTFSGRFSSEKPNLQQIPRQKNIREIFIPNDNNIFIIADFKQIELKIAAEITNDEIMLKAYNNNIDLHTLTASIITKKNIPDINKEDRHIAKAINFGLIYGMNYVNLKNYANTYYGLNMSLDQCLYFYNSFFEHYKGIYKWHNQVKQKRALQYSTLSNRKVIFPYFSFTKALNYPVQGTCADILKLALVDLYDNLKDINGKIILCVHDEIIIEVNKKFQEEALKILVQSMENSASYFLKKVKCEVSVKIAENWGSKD

CC(C)CCNC(=O)c1cnn2c(O)cc(CSc3ccc(Cl)cc3)nc12 [Molecule 101, CC(CCNC(=O)c1cnn2c1nc(CSc1ccc(cc1)Cl)cc2O)C]
DNA Pol ('DNA Pol' of the 186 hits list (screen value)): 47 | % inhibition Apo pol 10' (DRC-1, conc 2.5): 0.1018% | % inhibition Apo pol 10' (DRC-1, conc 5): 10.5875% | % inhibition Apo pol 10' (DRC-1, conc 10): 55.0331% | % inhibition Apo pol 10' (DRC-1, conc 20): 79.7694% | % inhibition Apo pol 10' (DRC-1, conc 40): 93.5546% | % inhibition Apo pol 10' (DRC-1, conc 80): 97.7054% | % inhibition Apol 90' (DRC-1, conc 2.5): -5.869% | % inhibition Apol 90' (DRC-1, conc 5): 6.076% | % inhibition Apol 90' (DRC-1, conc 10): 52.4114% | % inhibition Apol 90' (DRC-1, conc 20): 78.3109% | % inhibition Apol 90' (DRC-1, conc 40): 89.1904% | % inhibition Apol 90' (DRC-1, conc 80): 96.2635% | % inhibition apPOL 180' (DRC-1, conc 2.5): -11.3834% | % inhibition apPOL 180' (DRC-1, conc 5): -2.604% | % inhibition apPOL 180' (DRC-1, conc 10): 39.1813% | % inhibition apPOL 180' (DRC-1, conc 20): 71.0945% | % inhibition apPOL 180' (DRC-1, conc 40): 85.4085% | % inhibition apPOL 180' (DRC-1, conc 80): 94.6304% | % inhibition Apo pol 5' (DRC-2, conc 2.5): -1.9% | % inhibition Apo pol 5' (DRC-2, conc 5): 20% | % inhibition Apo pol 5' (DRC-2, conc 10): 55% | % inhibition Apo pol 5' (DRC-2, conc 20): 59% | % inhibition Apo pol 5' (DRC-2, conc 40): 66% | % inhibition Apo pol 5' (DRC-2, conc 80): 69% | % inhibition Apo pol 5' (DRC-2, concentration 40): 66% | % inhibition Apo pol 5' (DRC-2, concentration 80): 69% | % inhibition Apol 40' (DRC-2, conc 2.5): -1.08% | % inhibition Apol 40' (DRC-2, conc 5): 24% | % inhibition Apol 40' (DRC-2, conc 10): 65% | % inhibition Apol 40' (DRC-2, conc 20): 69% | % inhibition Apol 40' (DRC-2, conc 40): 76% | % inhibition Apol 40' (DRC-2, conc 80): 81% | % inhibition Apol 40' (DRC-2, concentration 20): 69% | % inhibition ApPOL 90' (DRC-2, conc 2.5): -2.68% | % inhibition ApPOL 90' (DRC-2, conc 5): 22% | % inhibition ApPOL 90' (DRC-2, conc 10): 66% | % inhibition ApPOL 90' (DRC-2, conc 20): 70% | % inhibition ApPOL 90' (DRC-2, conc 40): 77% | % inhibition ApPOL 90' (DRC-2, conc 80): 83% | % inhibition ApPOL 90' (DRC-2, concentration 10): 66% | % inhibition apPOL 180' (DRC-2, conc 2.5): -4.21% | % inhibition apPOL 180' (DRC-2, conc 5): 16% | % inhibition apPOL 180' (DRC-2, conc 10): 60% | % inhibition apPOL 180' (DRC-2, conc 20): 66% | % inhibition apPOL 180' (DRC-2, conc 40): 75% | % inhibition apPOL 180' (DRC-2, conc 80): 85% | % inhibition apPOL 180' (DRC-2, concentration 20): 66% | DNA Pol (primary screen value, "DNA Pol"): 47

CC(C)CCNC(=O)c1cnn2c(O)cc(CSc3ccc(Cl)cc3)nc12 [Molecule 101]
IC50 (supplemental file 2, sheet IC50 nontoxic compounds, Pf-apPOL): 9.74 µM
